# Measurements: patent US20140357713A1, “ANTIMICROBIAL COMPOUNDS AND METHODS OF USE” (NexMed Holdings, Inc., priority 2012, published 2014)
# Structures can show the parent of a compound that is named as a salt. Where two headings read alike, the source gives them in different places.
# Columns and labels:
# [1] = system: Candida albicans (ATCC 90029); assay: Minimum inhibitory concentration (MIC) assay, Example 33; format: cell-based; details: for MIC: Table 19 summary
# Description: (§1) Thirty compounds were tested for antimicrobial activity using standard procedures and standard strains for both the minimum inhibitory concentration (MIC) assay and a time kill study. Both the MIC assay and the time kill study were performed according to Clinical and Laboratory Standards Institute (CLSI) guidelines. Three bacteria strains, Escherichia coli (ATCC 25922), Pseudomonas aeruginosa (ATCC 27853), Staphulococcus aureus (ATCC 29213), and two fungus strains, Candida albicans (ATCC 90029) and Aspergillus niger (CMCC 98003), were used in the experiments.
# (§2) Preparation of cultures. Before the experiment, two days for the bacteria strains and five days for fungus strains, an aliquot was removed from the cultures frozen at −80° C. Medium was added to the surface of an appropriate agar plate and streaked with the aliquot. The plate was incubated for 20 to 24 hrs at 35±2° C. for bacteria or for 5 days at 26-30° C. in incubator for fungus. From the resulting growth on each plate, one isolated colony of similar morphology was selected and re-streaked onto a fresh agar plate using a sterile disposable loop. The plate was incubated 20 to 24 hrs at 35±2° C. or for 5 days at 26-30° C. in an incubator.
# (§3) Preparation of Assay Plates with Medium and Drugs. On the day of the assay, CAMHB medium or RPMI 1640 medium was removed from 4′C storage and allowed to reach room temperature. Ninety microliters (μL) of room temperature CAMHB or RPMI 1640 (supplemented with the appropriate concentration of DMSO, if required) were added to rows B-G of each 96-well microtiter plate. Using a pipette, duplicate 180 μL aliquots of each drug stock solution were added to column 1 (e.g. A1 and B1 or C1 and D1 or E1 and F1 or G1 and H1). Using a multichannel pipette or the Provision 2000 liquid handler, serial 2-fold dilutions (90 μL) were performed in each row across the plate to row G. Eighty μL of compounds dilutions were transferred to a 96-deep well plate. Medium, 1,520 μL of CAMHB or RPMI 1640, was added to each well. The contents of the wells were mixed thoroughly. A 50 μL aliquot of each of the resulting mixtures was transferred to a 96-well assay plate.
# For Candida albicans, a sterile inoculating loop was used to transfer growth from an agar plate culture into a tube with RPMI1640 medium. This inoculum was adjusted so that its density at 530 nm was in the ranges from 0.08 to 0.13. The resulting suspension was diluted 1:50 and further diluted 1:20 with the medium to obtain two times test inoculums.
# (§4) For Aspergillus niger, sporulating colonies were covered with RPMI 1640, and a suspension was prepared by gently probing the colonies with the tip of a transfer pipette. The suspension was transferred to a sterile tube and mixed with a vortex mixer for 15 seconds. The densities at 530 nm were adjusted to 0.09-0.13 for each sample. The resulting suspension was diluted 1:50 with the medium to obtain two times test inoculums. Fifty μL/well of this inoculum suspension was added to wells of drug-containing plates (1:2 dilution). Plates were incubated at 35° C. for the appropriate times. The MIC was read and recorded according to CLSI guidelines.
# (§5) The MIC values for thirty compounds against Escherichia coli, Pseudomonas aeruginosa, Staphulococcus aureus, Candida albicans, and Aspergillus niger were recorded and are presented in Table 3 and Table 4.
# [2] = system: Aspergillus niger (CMCC 98003); assay: as above; format: cell-based; details: for MIC Aspergillus niger: n = 1
# Description: as §1, §2, §3, §4, §5
# pH (Table 1) = format: physicochemical
# [3] = system: Candida albicans (ATCC 90029); assay: Time kill study, Example 33 (0 to 5 min); format: cell-based; details: 1×MIC, phosphate
# Description: as §1
# (§6) The viable counts in Log10 CFU/mL at each time point were recorded.
# (§7) Time kill studies. Strain suspensions were prepared as described above for the MIC test, and strain suspensions and compound solutions were mixed in the same volume. Samples were removed at specified times including 0 min, 30 sec, 1 min and 5 mins, were diluted in the test medium and streaked on agar. Colonies were counted after 24 to 48 hrs of incubation. […]
# [4] = system: Staphylococcus aureus (ATCC 29213); assay: Time kill study, Example 33 (0 to 5 min); format: cell-based; details: 1×MIC
# Description: as §1, §6, §7
# [5] = system: Staphulococcus aureus (ATCC 29213); assay: Minimum inhibitory concentration (MIC) assay, Example 33; format: cell-based, Staphylococcus aureus
# Description: as §1, §2, §3
# (§8) For bacteria, a sterile inoculating loop was used to transfer growth from an agar plate culture into about 5 mL of test medium. Using a turbidity meter, this inoculum was adjusted so that its density (600 nm) was equivalent to a 0.5 McFarland barium sulfate standard (0.08-0.13). The resulting suspension was diluted 1:100 into medium to obtain two times test inoculums.
# as §4, §5
# [6] = system: Pseudomonas aeruginosa (ATCC 27853); assay: as above; format: cell-based; details: for MIC: Table 19 summary
# Description: as §1, §2, §3, §8, §4, §5
# [7] = system: Escherichia coli (ATCC 25922); assay: as above; format: cell-based
# Description: as §1, §2, §3, §8, §4, §5
# [8] = system: Pseudomonas aeruginosa (ATCC 27853); assay: Time kill study, Example 33 (0 to 5 min); format: cell-based; details: 1×MIC
# Description: as §1, §6, §7
# [9] = system: Escherichia coli (ATCC 25922); assay: Time kill study, Example 33 (0 to 5 min); format: cell-based; details: 1×MIC
# Description: as §1, §6, §7
# [10] = Table 19 summary, methanesulfonate
smiles,measurement,setting,value
"CCCCCCCCCCCCOC(=O)C(C)N(C)C (centres unmarked) [Nex-15, Dodecyl 2-(dimethylamino)propanoate phosphate]",MIC,[1]; phosphate,0.05 mg/mL
same,MIC Candida albicans,"[1]; n = 1, phosphate",0.05 mg/mL
same,MIC Candida albicans,"[1]; n = 2, phosphate",0.05 mg/mL
same,MIC,"[2]; Table 19 summary, phosphate",12.5 mg/mL
same,MIC Aspergillus niger,[2]; phosphate,12.5 mg/mL
same,pH,pH (Table 1); phosphate,2.01
same,"Viable counts, Candida albicans time kill study",[3]; 0.5 min,5.23 Log10 CFU/mL
same,"Viable counts, Candida albicans time kill study",[3]; 1 min,5.25 Log10 CFU/mL
same,"Viable counts, Candida albicans time kill study",[3]; 5 min,5.28 Log10 CFU/mL
same,"Viable counts, Candida albicans time kill study",[3]; time 0,5.12 Log10 CFU/mL
same,"Viable counts, Staphylococcus aureus time kill study","[4]; 0.5 min, phosphate",6.16 Log10 CFU/mL
same,"Viable counts, Staphylococcus aureus time kill study","[4]; 1 min, phosphate",6.14 Log10 CFU/mL
same,"Viable counts, Staphylococcus aureus time kill study","[4]; 5 min, phosphate",6.14 Log10 CFU/mL
same,"Viable counts, Staphylococcus aureus time kill study","[4]; time 0, phosphate",6.23 Log10 CFU/mL
same,MIC S. aureus,"[5]; n = 1, phosphate",0.39 mg/mL
same,MIC S. aureus,"[5]; n = 2, phosphate",0.2 mg/mL
same,MIC,[6]; phosphate,>12.5 mg/mL
same,MIC P. aeruginosa,"[6]; n = 1, phosphate",>12.5 mg/mL
same,MIC P. aeruginosa,"[6]; n = 2, phosphate",>12.5 mg/mL
same,MIC (mg/ml),"[7]; Table 19 summary of Example 33 and Example 35, phosphate",≧12.5 mg/ml
same,MIC E. coli,"[7]; n = 1, phosphate",>12.5 mg/mL
same,MIC E. coli,"[7]; n = 2, phosphate",>12.5 mg/mL
"CCCCCCCCCCCCOC(=O)C(C)N(C)C (centres unmarked) [Nex-20, Dodecyl 2-(dimethylamino)propanoate maleate]",MIC,[1]; maleate,12.5 mg/mL
same,MIC Candida albicans,"[1]; n = 1, maleate",12.5 mg/mL
same,MIC Candida albicans,"[1]; n = 2, maleate",12.5 mg/mL
same,MIC,"[2]; Aspergillus niger, CMCC98003, Table 19 summary, read-out: MIC",> 12.5 mg/mL
same,MIC Aspergillus niger,[2]; maleate,>12.5 mg/mL
same,pH,pH (Table 1); maleate,3.39
same,"Viable counts, Pseudomonas aeruginosa time kill study","[8]; 0.5 min, maleate",<4.0 Log10 CFU/mL
same,"Viable counts, Pseudomonas aeruginosa time kill study","[8]; 1 min, maleate",3.7 Log10 CFU/mL
same,"Viable counts, Pseudomonas aeruginosa time kill study",[8]; 5 min,<3.52 Log10 CFU/mL
same,"Viable counts, Pseudomonas aeruginosa time kill study","[8]; time 0, maleate",5.56 Log10 CFU/mL
same,"Viable counts, Escherichia coli time kill study","[9]; 0.5 min, maleate",5.84 Log10 CFU/mL
same,"Viable counts, Escherichia coli time kill study","[9]; 1 min, maleate",5.92 Log10 CFU/mL
same,"Viable counts, Escherichia coli time kill study","[9]; 5 min, maleate",4.37 Log10 CFU/mL
same,"Viable counts, Escherichia coli time kill study","[9]; time 0, maleate",5.86 Log10 CFU/mL
same,"Viable counts, Staphylococcus aureus time kill study","[4]; 0.5 min, maleate",6.18 Log10 CFU/mL
same,"Viable counts, Staphylococcus aureus time kill study","[4]; 1 min, maleate",6.15 Log10 CFU/mL
same,"Viable counts, Staphylococcus aureus time kill study","[4]; 5 min, maleate",5.61 Log10 CFU/mL
same,"Viable counts, Staphylococcus aureus time kill study","[4]; time 0, maleate",6.15 Log10 CFU/mL
same,MIC S. aureus,"[5]; n = 1, maleate",3.13 mg/mL
same,MIC S. aureus,"[5]; n = 2, maleate",1.56 mg/mL
same,MIC,[6]; maleate,6.25 mg/mL
same,MIC P. aeruginosa,"[6]; n = 1, maleate",6.25 mg/mL
same,MIC P. aeruginosa,"[6]; n = 2, maleate",6.25 mg/mL
same,MIC,"[7]; Table 19 summary of Example 33 and Example 35, maleate",1.56 mg/mL
same,MIC E. coli,"[7]; n = 1, maleate",1.56 mg/mL
same,MIC E. coli,"[7]; n = 2, maleate",1.56 mg/mL
"CCCCCCCCCCCCOC(=O)C(C)N(C)C (centres unmarked) [Nex-22, Dodecyl 2-(dimethylamino)propanoate methanesulfonate]",MIC,[1]; methanesulfonate,>12.5 mg/mL
same,MIC Candida albicans,"[1]; n = 1, methanesulfonate",>12.5 mg/mL
same,MIC Candida albicans,"[1]; n = 2, methanesulfonate",>12.5 mg/mL
same,MIC,[2]; [10],>12.5 mg/mL
same,MIC Aspergillus niger,[2]; methanesulfonate,>12.5 mg/mL
same,pH,pH (Table 1); methanesulfonate,3.25
same,"Viable counts, Pseudomonas aeruginosa time kill study","[8]; 0.5 min, methanesulfonate",<4.0 Log10 CFU/mL
same,"Viable counts, Pseudomonas aeruginosa time kill study","[8]; 1 min, methanesulfonate",<3.70 Log10 CFU/mL
same,"Viable counts, Pseudomonas aeruginosa time kill study","[8]; time 0, methanesulfonate",5.64 Log10 CFU/mL
same,"Viable counts, Escherichia coli time kill study","[9]; 0.5 min, methanesulfonate",4.6 Log10 CFU/mL
same,"Viable counts, Escherichia coli time kill study","[9]; 1 min, methanesulfonate",<3.70 Log10 CFU/mL
same,"Viable counts, Escherichia coli time kill study","[9]; 5 min, methanesulfonate",<3.52 Log10 CFU/mL
same,"Viable counts, Escherichia coli time kill study","[9]; time 0, methanesulfonate",5.78 Log10 CFU/mL
same,"Viable counts, Staphylococcus aureus time kill study","[4]; 0.5 min, methanesulfonate",6.2 Log10 CFU/mL
same,"Viable counts, Staphylococcus aureus time kill study","[4]; 1 min, methanesulfonate",6.18 Log10 CFU/mL
same,"Viable counts, Staphylococcus aureus time kill study","[4]; 5 min, methanesulfonate",6.21 Log10 CFU/mL
same,"Viable counts, Staphylococcus aureus time kill study","[4]; time 0, methanesulfonate",6.08 Log10 CFU/mL
same,MIC,[5]; [10],3.13 mg/mL
same,MIC S. aureus,"[5]; n = 1, methanesulfonate",3.13 mg/mL
same,MIC S. aureus,"[5]; n = 2, methanesulfonate",3.13 mg/mL
same,MIC,[6]; methanesulfonate,6.25 mg/mL
same,MIC P. aeruginosa,"[6]; n = 1, methanesulfonate",6.25 mg/mL
same,MIC P. aeruginosa,"[6]; n = 2, methanesulfonate",6.25 mg/mL
same,MIC,"[7]; Table 19 summary of Example 33 and Example 35, methanesulfonate",3.13 mg/mL
same,MIC E. coli,"[7]; n = 1, methanesulfonate",3.13 mg/mL
same,MIC E. coli,"[7]; n = 2, methanesulfonate",3.13 mg/mL
